Assay [1] is filed under the species Bos taurus. Description: Inhibition of beef heart mitochondrial NADH oxidase assessed as specific activity at 0.35 mM preincubated for 15 mins relative to control. Also noted: scale not given: the % may be the effect or the level left.
Assay [2] can be described thus: Inhibition of beef heart mitochondrial NADH oxidase assessed per mg of protein. Also noted: species or system Bos taurus. The following applies: read-out: I50.
The species named for another assay is Rattus norvegicus. Description: Inhibition of rat liver mitochondrial ATPase assessed as specific activity at 0.42 mM relative to control. Also noted: scale not given: the % may be the effect or the level left.
Assay [3] is filed under the species Bos taurus. Put plainly: Inhibition of beef heart mitochondrial succinoxidase assessed as specific activity at 0.35 mM preincubated for 15 mins relative to control. Also noted: scale not given: the % may be the effect or the level left.
A short description of assay [4]: Inhibition of beef heart mitochondrial succinoxidase assessed per mg of protein. Particulars: read-out: I50. Also noted: species or system Bos taurus.
The nature of assay [5]: Inhibition of rat liver mitochondrial ATPase assessed per mg of protein. The following applies: read-out: I50.
Assay [6] is filed under the species Bos taurus. Description: Inhibition of beef heart mitochondrial NADH oxidase assessed as complete enzyme inhibition at 100 nmol/mg.

Calls of active or inactive are those of the source. No cut-off for these calls is given here.

`O=c1cc(-c2ccccc2)oc2cccc(O)c12` [5-HYDROXYFLAVONE]: the Activity in the assay listed under Bos taurus [1] is 14.6%; in the assay filed under Rattus norvegicus, 98.9%; in the assay filed under Bos taurus [3] it was 95.7%. Besides, the IC50 in assay [2] came out at 425 nmol/mg.

Regarding `O=C1c2c(O)cc(O)cc2O[C@H](c2ccc(O)c(O)c2)[C@H]1O` [(+)-TAXIFOLIN], in assay [2], the IC50 came out at 1040 nmol/mg.

As for `O=c1cc(-c2ccccc2)oc2cc(O)ccc12` [7-HYDROXYFLAVONE], the results for the Activity in the assay listed under Bos taurus [1], in the assay listed under Rattus norvegicus and in the assay listed under Bos taurus [3] were 54.2%, 95.1% and 91.3%, respectively. In addition, the IC50 in assay [2] was 1400 nmol/mg.

`O=c1c(O)c(-c2ccc(O)cc2O)oc2cc(O)cc(O)c12` [MORIN]: the Activity was found to be 18% in the assay listed under Bos taurus [1], 13.3% in the assay listed under Rattus norvegicus and 31.5% in the assay filed under Bos taurus [3]. The IC50 in assay [2] amounted to 430 nmol/mg; in assay [4], 730 nmol/mg; in assay [5], 120 nmol/mg.

As for `O=c1c(O)c(-c2cc(O)c(O)c(O)c2)oc2cc(O)cc(O)c12` [MYRICETIN], the Activity in the assay filed under Bos taurus [1] is 12%; in the assay filed under Rattus norvegicus, 8.4%; in the assay filed under Bos taurus [3] it was 14.7%. In addition, the IC50 in assay [2] worked out at 35 nmol/mg; in assay [4], 45 nmol/mg; in assay [5], 370 nmol/mg.

On to `COc1ccc(-c2cc(=O)c3c(O)cc(O)cc3o2)cc1`, for which the Activity in the assay filed under Bos taurus [1] came out at 88.6%; in the assay filed under Rattus norvegicus it was 98.7%; in the assay filed under Bos taurus [3], 99.3%.

For `O=c1cc(-c2ccccc2)oc2ccccc12` [FLAVONE], the Activity in the assay listed under Bos taurus [1] was 14.5%; in the assay listed under Rattus norvegicus it was 67.4%; in the assay filed under Bos taurus [3] it was 82%. Besides, in assay [2], the IC50 was 240 nmol/mg.

Consider `O=c1c(-c2ccc(O)cc2)coc2cc(O)cc(O)c12` [GENISTEIN], for which the Activity in the assay filed under Bos taurus [1] came to 6.6%; in the assay filed under Rattus norvegicus it was 69.2%; in the assay listed under Bos taurus [3], 98.3%. Moreover, the IC50 in assay [2] is 365 nmol/mg.

For `COc1ccccc1-c1cc(=O)c2c(OC)cccc2o1`, the results for the Activity in the assay filed under Bos taurus [1], in the assay listed under Rattus norvegicus and in the assay filed under Bos taurus [3] were 86.9%, 77.3% and 80.8%, respectively.

For the molecule `O=C1c2ccc(O)cc2O[C@H](c2ccc(O)c(O)c2)[C@H]1O` [FUSTIN], the IC50 in assay [2] worked out at 671 nmol/mg.

Take `O=c1cc(-c2ccc(O)cc2)oc2cc(O)cc(O)c12` [APIGENIN]: the results for the Activity in the assay listed under Bos taurus [1], in the assay filed under Rattus norvegicus and in the assay listed under Bos taurus [3] were 12.9%, 84.6% and 93.8%, respectively. Further, in assay [2], the IC50 stood at 920 nmol/mg.

Consider `O=C1CC(c2ccccc2)Oc2ccccc21` (centres undefined) [FLAVANONE], for which the Activity in the assay filed under Bos taurus [1] was determined as 6.5%; in the assay listed under Rattus norvegicus, 73.4%; in the assay listed under Bos taurus [3] it was 84.8%. Moreover, the IC50 in assay [2] is 310 nmol/mg.

Regarding `O=c1c(O)c(-c2ccc(O)cc2)oc2cc(O)cc(O)c12`, the Activity in the assay listed under Bos taurus [1] is 59.3%; in the assay filed under Rattus norvegicus it was 94.2%; in the assay filed under Bos taurus [3], 84.4%.

Consider `O=c1cc(-c2ccccc2)oc2cc(O)cc(O)c12` [CHRYSIN], for which the Activity came out at 11.2% in the assay listed under Bos taurus [1], 77.7% in the assay listed under Rattus norvegicus and 75.8% in the assay listed under Bos taurus [3]. For the same molecule, in assay [2], the IC50 stood at 250 nmol/mg.

Regarding `O=c1c(O)c(-c2ccc(O)c(O)c2)oc2cc(O)ccc12` [FISETIN], the Activity in the assay listed under Bos taurus [1] stood at 8.3%; in the assay filed under Rattus norvegicus, 17.2%; in the assay listed under Bos taurus [3], 9.6%. Besides, the IC50 in assay [2] came to 15 nmol/mg; in assay [4] it was 45 nmol/mg; in assay [5], 480 nmol/mg. Also, in the assay filed under Bos taurus [6], the outcome was Active.

Consider `C[C@@H]1O[C@@H](OC[C@H]2O[C@@H](Oc3c(-c4ccc(O)c(O)c4)oc4cc(O)cc(O)c4c3=O)[C@H](O)[C@@H](O)[C@@H]2O)[C@H](O)[C@H](O)[C@H]1O` [RUTIN], for which the Activity was 49.1% in the assay filed under Bos taurus [1], 66.5% in the assay filed under Rattus norvegicus and 66.7% in the assay filed under Bos taurus [3]. Besides, the IC50 in assay [2] was 1890 nmol/mg.

With `COc1ccc(-c2oc3cc(O)cc(O)c3c(=O)c2O)cc1`, the figures for the Activity in the assay filed under Bos taurus [1], in the assay filed under Rattus norvegicus and in the assay filed under Bos taurus [3] were 70.6%, 96.1% and 98.7%, respectively.

Turning to `O=c1c(O)c(-c2ccccc2)oc2cc(O)cc(O)c12` [GALANGIN], the Activity was determined as 48.6% in the assay listed under Bos taurus [1], 99.9% in the assay listed under Rattus norvegicus and 92.4% in the assay filed under Bos taurus [3]. Further, the IC50 in assay [2] was 1670 nmol/mg.

As for `O=C1C[C@@H](c2ccc(O)cc2)Oc2cc(O)cc(O)c21` [NARINGENIN], the Activity in the assay listed under Bos taurus [1] amounted to 83.9%; in the assay filed under Rattus norvegicus it was 43.6%; in the assay filed under Bos taurus [3], 84.8%. The IC50 in assay [5] came out at 1800 nmol/mg.

For `O=c1c(O)c(-c2ccc(O)c(O)c2)oc2cc(O)cc(O)c12` [QUERCETIN], the Activity in the assay listed under Bos taurus [1] stood at 6.4%; in the assay listed under Rattus norvegicus, 7.1%; in the assay listed under Bos taurus [3] it was 21.8%. In addition, the IC50 in assay [2] is 145 nmol/mg; in assay [4], 715 nmol/mg; in assay [5], 205 nmol/mg.

(Values after ChEMBL document CHEMBL1150720, “Inhibition of mitochondrial NADH oxidase, succinoxidase, and ATPase by naturally occurring flavonoids” (J Nat Prod, 1987).)
